Test [1] has as its target T1, Full length (FL) 3-Phosphoglycerate Dehydrogenase (PHGDH) (Homo sapiens, UniProt O43175).
T1 construct: Full length (FL) 3-Phosphoglycerate Dehydrogenase (PHGDH) Diaphorase coupled assay (500 uM NAD)
T1 sequence (O43175 1-533): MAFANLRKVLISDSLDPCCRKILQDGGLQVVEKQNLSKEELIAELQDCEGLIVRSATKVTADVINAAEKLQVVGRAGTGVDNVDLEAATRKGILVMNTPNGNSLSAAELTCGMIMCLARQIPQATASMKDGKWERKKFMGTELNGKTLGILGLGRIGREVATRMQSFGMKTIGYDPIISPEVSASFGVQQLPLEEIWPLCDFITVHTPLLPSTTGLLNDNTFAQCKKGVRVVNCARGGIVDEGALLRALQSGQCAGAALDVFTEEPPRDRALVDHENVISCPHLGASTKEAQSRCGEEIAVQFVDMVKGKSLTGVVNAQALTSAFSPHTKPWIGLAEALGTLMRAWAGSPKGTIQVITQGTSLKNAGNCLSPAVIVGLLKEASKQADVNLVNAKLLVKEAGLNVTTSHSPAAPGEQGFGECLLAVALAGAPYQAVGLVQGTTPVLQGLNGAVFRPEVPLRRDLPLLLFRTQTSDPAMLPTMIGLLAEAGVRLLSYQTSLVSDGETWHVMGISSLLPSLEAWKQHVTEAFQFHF
The test is described as follows: Full length (FL) PHGDH Diaphorase coupled assay (20 uM NAD). The conditions noted are these: 10 nM PHGDH, 30° C., 60 minutes, read-out: FL Diaphorase 20 μM NAD (PHGDH activity inhibition, IC50). It counts as biochemical. The protocol:
Example 57: Full Length (FL) 3-Phosphoglycerate Dehydrogenase (PHGDH) Diaphorase Coupled Assay (20 uM NAD)
Serial dilution of compounds were incubated in a volume of 20 μl in 384 well plates with the assay mixture containing 10 nM PHGDH, 500 nM PSAT1, 500 nM PSPH, 20 μM NAD^+, 80 uM 3-phosphoglycerate, 1 mM glutamate, 57 uM Resazurin and 0.2 mg/ml Diaphorase in assay buffer containing 50 mM Trisethanoloamine (TEA) pH8.0, 10 mM MgCl2, 0.01% Tween-20 and 0.05% Bovine Serum Albumin (BSA). The plate was then incubated at 30° C. for 60 minutes and resorufin fluorescence was measured at emission wavelength 598 nm following excitation at 525 nm. The positive control consisted of the complete reaction mixture with 4% DMSO and was set to 0% inhibition. […] Percent inhibition with the compounds was then calculated by normalizing the fluorescence observed at a given compound concentration to the positive and negative controls.

Test [2] concerns the target T1, Full length (FL) 3-Phosphoglycerate Dehydrogenase (PHGDH). The test is described as follows: Full length (FL) PHGDH Diaphorase coupled assay (500 uM NAD). It counts as biochemical. The conditions noted are these: 5 nM PHGDH, 30° C., 60 minutes. The protocol: Full length (FL) 3-Phosphoglycerate Dehydrogenase (PHGDH) Diaphorase coupled assay (500 uM NAD)
PHGDH activity was determined by detecting the NADH produced during the reaction. Diaphorase was used to catalyze the oxidation of NADH with the concomitant reduction of resazurin to the fluorescent product resorufin. Resorufin fluorescence quantitatively reflected the production of NADH by the PHGDH reaction. To drive the forward reaction, two enzymes in the serine synthesis pathway subsequent to PHGDH, Phosphoserine aminotransferase (PSAT1) and phosphoserine phosphatase (PSPH) were also added to the reaction.

The structures appear in SMILES notation.

A word on the IC50: it is the point on the concentration scale where inhibition reaches its midpoint. For the molecule `Cn1c(C(=O)NC(CN)c2ccc(C(=O)O)cc2)cc2c(Cl)c(Cl)ccc21` (racemic) [Compound I-46, (±)-4-(2-Amino-1-(4,5-dichloro-1-methyl-1H-indole-2-carboxamido)ethyl) benzoic Acid], in test [1], the IC50 is 10 to 1000 nM.

`CC(=O)NS(=O)(=O)N(C)CCCNC(=O)c1cc2c(Cl)c(Cl)ccc2n1C` [Compound I-51, N-[3-[acetylsulfamoyl(methyl)amino]propyl]-4,5-dichloro-1-methyl-indole-2-carboxamide]: the IC50 in test [1] is 5000 to 10000 nM. Take `CC(=O)NS(=O)(=O)NCCCNC(=O)c1cc2c(Cl)c(Cl)ccc2n1C` [Compound I-52, N-[3-(acetylsulfamoylamino)propyl]-4,5-dichloro-1-methyl-indole-2-carboxamide]: in test [1], the half-maximal inhibitory concentration (IC50) lay in the range of 1000 to 5000 nM. With `CC(=O)NS(=O)(=O)NCCC(NC(=O)c1cc2c(Cl)c(Cl)ccc2n1C)c1cccc(C(=O)O)c1` (racemic) [Compound I-49, (±)-3-[3-(Acetylsulfamoylamino)-1-[(4,5-dichloro-1-methyl-indole-2-carbonyl)amino]propyl]benzoic Acid], the IC50 in test [1] was in the range of 10 to 1000 nM. The same measure, in the same setting: the result for `Cn1c(C(=O)NC(C)(C)CC(N)=O)cc2c(Cl)c(Cl)ccc21` [Compound I-53, N-(3-amino-1,1-dimethyl-3-oxo-propyl)-4,5-dichloro-1-methyl-indole-2-carboxamide] reads above 10000 nM; that for `CC(=O)NS(=O)(=O)NCCC(NC(=O)c1cc2c(Cl)c(Cl)ccc2n1C)c1cccc(CO)c1` (racemic) [Compound I-48, (±)-N-[3-(acetylsulfamoylamino)-1-[3-(hydroxymethyl)phenyl]propyl]-4,5-dichloro-1-methyl-indole-2-carboxamide], 1000 to 5000 nM; that for `CC(=O)NS(=O)(=O)NCCC(NC(=O)c1cc2c(Cl)c(Cl)ccc2n1C)c1ccc(C(=O)O)cc1` (stereo not shown) [Compound I-47, 4-[3-(Acetylsulfamoylamino)-1-[(4,5-dichloro-1-methyl-indole-2-carbonyl)amino]propyl]benzoic Acid], 10 to 1000 nM. Still for that read-out and setting: the value for `CC(=O)NS(=O)(=O)NCCC(NC(=O)c1cc2c(Cl)c(Cl)ccc2n1C)c1ccccc1` (racemic) [Compound I-50, (±)-N-[3-(acetylsulfamoylamino)-1-phenyl-propyl]-4,5-dichloro-1-methyl-indole-2-carboxamide] was 1000 to 5000 nM; that for `CC(=O)NS(=O)(=O)N(C)CCC(NC(=O)c1cc2c(Cl)c(Cl)ccc2n1C)c1ccc(C(=O)O)cc1` (racemic) [Compound I-45, (±)-4-[3-[Acetylsulfamoyl(methyl)amino]-1-[(4,5-dichloro-1-methyl-indole-2-carbonyl)-amino]propyl]benzoic Acid] was 10 to 1000 nM.

In test [2], `Cn1c(C(=O)N[C@H](CO)c2ccc(CC(=O)O)cc2Cl)cc2c(Cl)c(Cl)ccc21` [Compound I-10, 2-{3-chloro-4-[(1S)-1-[(4,5-dichloro-1-methyl-1H-indol-2-yl)formamido]-2-hydroxyethyl]phenyl}-acetic acid] showed an IC50 of 10 to 1000 nM. Still for that read-out and setting: the result for `COc1ccc2c(cc(C(=O)N[C@H](CO)c3ccc(C(=O)O)cc3F)n2C)c1Cl` [Compound I-13] reads 10 to 1000 nM. As for `CCC(C(=O)O)c1ccc([C@@H](CO)NC(=O)c2cc3c(Cl)c(OC)ccc3n2C)cc1` (mixture of isomers) [Compound I-5, (±)-2-[4-[(1S)-1-[(4-chloro-5-methoxy-1-methyl-indole-2-carbonyl)amino]-2-hydroxy-ethyl]phenyl]butanoic Acid], the IC50 in test [2] fell in the range of 10 to 1000 nM. On the same count and under the same terms, the result for `Cn1c(C(=O)N[C@H](CO)c2ccc(CC(=O)O)cc2F)cc2c(Cl)c(Cl)ccc21` [Compound I-32, 2-{4-[(1S)-1-[(4,5-dichloro-1-methyl-1H-indol-2-yl)formamido]-2-hydroxyethyl]-3-fluorophenyl}acetic acid] reads 10 to 1000 nM.

The values are drawn from patent US11535593B2, “3-phosphoglycerate dehydrogenase inhibitors and uses thereof” (Raze Therapeutics, Inc., priority 2016, dated 2022).
